The text below walks through data of paper PMC6691843, “Seeking new approach for therapeutic treatment of cholera disease via inhibition of bacterial carbonic anhydrases: experimental and theoretical studies for sixteen benzenesulfonamide derivatives” (Journal of Enzyme Inhibition and Medicinal Chemistry, 2019).

Structures are written as SMILES.

T1 sequence (Q9KMP6 21-239): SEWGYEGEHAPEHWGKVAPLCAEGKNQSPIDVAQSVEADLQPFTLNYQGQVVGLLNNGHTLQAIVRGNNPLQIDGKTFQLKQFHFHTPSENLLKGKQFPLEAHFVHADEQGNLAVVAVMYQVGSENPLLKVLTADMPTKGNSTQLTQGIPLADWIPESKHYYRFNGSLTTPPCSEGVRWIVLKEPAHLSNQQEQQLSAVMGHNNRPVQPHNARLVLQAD
Chain of VchCAγ (Q9KVT1 entry or part of it): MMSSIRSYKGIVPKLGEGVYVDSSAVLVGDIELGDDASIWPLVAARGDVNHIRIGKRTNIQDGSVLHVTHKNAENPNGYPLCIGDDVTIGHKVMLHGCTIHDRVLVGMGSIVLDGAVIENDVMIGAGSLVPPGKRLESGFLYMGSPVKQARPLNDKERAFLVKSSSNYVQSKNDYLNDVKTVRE

One data set addresses T1, VchCAα (Vibrio cholerae serotype O1, UniProt Q9KMP6).
T1 construct: made in house; host or cells: E. coli BL21 DE3
As to the kind of experiment: stopped flow CO2 hydrase assay, VchCAα. It is filed as biochemical. The following applies: 8a versus 8d.
Turning to `NS(=O)(=O)c1ccc(C(=O)N2CCN(Cc3ccccc3)CC2)cc1` [8a, 4-(4-Benzylpiperazine-1-carbonyl)benzenesulfonamide], the “reduction of activity on VchCAα compared to parent compound 8d” value was “ten-fold reduction of activity”.

Staying with this data set, now noted: Ki VchCAα, stopped flow CO2 hydrase assay; mean from three different assays.
What is called Ki is the dissociation constant of the complex between target and ligand, obtained from inhibition or displacement. The compound `NS(=O)(=O)c1ccc(C(=O)N2CCCCC2)cc1` [5a, 4-(Piperidine-1-carbonyl)benzenesulfonamide] gave a Ki of 0.843 µM.

`CC1CCCCN1C(=O)c1ccc(S(N)(=O)=O)cc1` (stereo not shown) [5b, 4-(2-Methylpiperidine-1-carbonyl)benzenesulfonamide] yielded a Ki of 0.296 µM.

For the compound `CC1CCCN(C(=O)c2ccc(S(N)(=O)=O)cc2)C1` (stereo not shown) [5c, 4-(3-Methylpiperidine-1-carbonyl)benzenesulfonamide], the inhibitory constant (Ki) came out at 0.529 µM.

Consider `CC1CCN(C(=O)c2ccc(S(N)(=O)=O)cc2)CC1` [5d, 4-(4-Methylpiperidine-1-carbonyl)benzenesulfonamide], for which the Ki worked out at 0.589 µM.

`NS(=O)(=O)c1ccc(C(=O)N2CCC(Cc3ccccc3)CC2)cc1` [5e, 4-(4-Benzylpiperidine-1-carbonyl)benzenesulfonamide] gave a Ki of 0.242 µM.

For `NS(=O)(=O)c1ccc(C(=O)N2CCCCCC2)cc1` [6a, 4-(Azepane-1-carbonyl)benzenesulfonamide], the affinity, expressed as Ki, was 0.275 µM.

`NS(=O)(=O)c1ccc(C(=O)N2CCC(c3ccccc3)CC2)cc1` [7a, 4-(4-Phenylpiperidine-1-carbonyl)benzenesulfonamide] yielded a Ki of 0.0433 µM.

With `NS(=O)(=O)c1ccc(C(=O)N2CCC(O)(c3ccccc3)CC2)cc1` [7b, 4-(4-Hydroxy-4-phenylpiperidine-1-carbonyl)benzenesulfonamide], the Ki was 0.194 µM.

On to `NS(=O)(=O)c1ccc(C(=O)N2CCC(O)(c3ccc(Cl)cc3)CC2)cc1` [7c, 4-[4-(4-Chlorophenyl)-4-hydroxypiperidine-1-carbonyl]benzenesulfonamide], for which the Ki came to 0.0451 µM.

Compound `NS(=O)(=O)c1ccc(C(=O)N2CCC(O)(c3ccc(Br)cc3)CC2)cc1` [7d, 4-[4-(4-Bromophenyl)-4-hydroxy-piperidine-1-carbonyl]benzenesulfonamide] came in with a Ki of 0.0588 µM.

Compound `N#CC1(c2ccccc2)CCN(C(=O)c2ccc(S(N)(=O)=O)cc2)CC1` [7e, 4-(4-Cyano-4-phenylpiperidine-1-carbonyl)benzenesulfonamide] had a Ki of 0.0899 µM.

On to `NS(=O)(=O)c1ccc(C(=O)N2CCN(Cc3ccccc3)CC2)cc1` [8a, 4-(4-Benzylpiperazine-1-carbonyl)benzenesulfonamide], for which the affinity corresponds to a Ki of 0.47 µM.

Consider `NS(=O)(=O)c1ccc(C(=O)N2CCN(Cc3ccc(F)cc3)CC2)cc1` [8b, 4-[4-[(4-Fluorophenyl)methyl]piperazine-1-carbonyl]benzenesulfonamide], for which the affinity corresponds to a Ki of 0.0957 µM.

With `NS(=O)(=O)c1ccc(C(=O)N2CCN(C(c3ccccc3)c3ccccc3)CC2)cc1` [8c, 4-(4-Benzhydrylpiperazine-1-carbonyl)benzenesulfonamide], the Ki came to 0.275 µM.

Compound `NS(=O)(=O)c1ccc(C(=O)N2CCN(c3ccccc3)CC2)cc1` [8d, 4-(4-Phenylpiperazine-1-carbonyl)benzenesulfonamide] returned a Ki of 0.047 µM.

The data set is the same for the next values; noted with them: stopped flow CO2 hydrase assay; mean from three different assays; read-out: Ki VchCAα.
Turning to `CC(=O)C1(c2ccccc2)CCN(C(=O)c2ccc(S(N)(=O)=O)cc2)CC1` [7f, 4-(4-Acetyl-4-phenyl-piperidine-1-carbonyl)benzenesulfonamide], the Ki was determined as 0.0721 µM.

In another data set the test system is pathogen.
Assay: not given
More on the design: method as in PMID 26010545. The following applies: cited from earlier work.
In the case of `CCOc1ccc2nc(S(N)(=O)=O)sc2c1` [EZA, ethoxzolamide], the growth of pathogen entry is “reduce the growth of pathogen” and the virulence gene expression entry is listed as “decrease the virulence gene expression”.

The target in another data set is VchCAβ (Vibrio cholerae, UniProt A0A086SLX8). Put plainly: stopped flow CO2 hydrase assay, VchCAβ.
Chain of VchCAβ (A0A086SLX8 entry or part of it): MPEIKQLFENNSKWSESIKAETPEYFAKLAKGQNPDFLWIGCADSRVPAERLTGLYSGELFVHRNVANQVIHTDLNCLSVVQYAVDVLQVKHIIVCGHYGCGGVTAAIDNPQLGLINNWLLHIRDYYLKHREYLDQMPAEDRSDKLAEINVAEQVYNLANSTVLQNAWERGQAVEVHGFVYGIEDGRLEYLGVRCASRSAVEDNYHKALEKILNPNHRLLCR
Details: not given
It is filed as biochemical.
As for `NS(=O)(=O)c1ccc(C(=O)N2CCCCC2)cc1` [5a, 4-(Piperidine-1-carbonyl)benzenesulfonamide], the Ki was greater than 10 µM.

Consider `CC1CCCCN1C(=O)c1ccc(S(N)(=O)=O)cc1` (stereo not shown) [5b, 4-(2-Methylpiperidine-1-carbonyl)benzenesulfonamide], for which the Ki was greater than 10 µM.

With `CC1CCCN(C(=O)c2ccc(S(N)(=O)=O)cc2)C1` (stereo not shown) [5c, 4-(3-Methylpiperidine-1-carbonyl)benzenesulfonamide], the Ki is greater than 10 µM.

For `CC1CCN(C(=O)c2ccc(S(N)(=O)=O)cc2)CC1` [5d, 4-(4-Methylpiperidine-1-carbonyl)benzenesulfonamide], the Ki is greater than 10 µM.

For `NS(=O)(=O)c1ccc(C(=O)N2CCC(Cc3ccccc3)CC2)cc1` [5e, 4-(4-Benzylpiperidine-1-carbonyl)benzenesulfonamide], the Ki was 3.75 µM.

`NS(=O)(=O)c1ccc(C(=O)N2CCCCCC2)cc1` [6a, 4-(Azepane-1-carbonyl)benzenesulfonamide] registered a Ki greater than 10 µM.

For the compound `NS(=O)(=O)c1ccc(C(=O)N2CCC(c3ccccc3)CC2)cc1` [7a, 4-(4-Phenylpiperidine-1-carbonyl)benzenesulfonamide], affinity was put at a Ki of 3.31 µM.

As for `NS(=O)(=O)c1ccc(C(=O)N2CCC(O)(c3ccccc3)CC2)cc1` [7b, 4-(4-Hydroxy-4-phenylpiperidine-1-carbonyl)benzenesulfonamide], the affinity corresponds to a Ki of 3.71 µM.

Take `NS(=O)(=O)c1ccc(C(=O)N2CCC(O)(c3ccc(Cl)cc3)CC2)cc1` [7c, 4-[4-(4-Chlorophenyl)-4-hydroxypiperidine-1-carbonyl]benzenesulfonamide]: the Ki worked out at 3.94 µM.

In turn, `NS(=O)(=O)c1ccc(C(=O)N2CCC(O)(c3ccc(Br)cc3)CC2)cc1` [7d, 4-[4-(4-Bromophenyl)-4-hydroxy-piperidine-1-carbonyl]benzenesulfonamide] returned a Ki of 2.78 µM.

In the case of `N#CC1(c2ccccc2)CCN(C(=O)c2ccc(S(N)(=O)=O)cc2)CC1` [7e, 4-(4-Cyano-4-phenylpiperidine-1-carbonyl)benzenesulfonamide], the Ki stood at 0.806 µM.

Turning to `CC(=O)C1(c2ccccc2)CCN(C(=O)c2ccc(S(N)(=O)=O)cc2)CC1` [7f, 4-(4-Acetyl-4-phenyl-piperidine-1-carbonyl)benzenesulfonamide], the inhibition constant Ki came out at 6.61 µM.

In turn, `NS(=O)(=O)c1ccc(C(=O)N2CCN(Cc3ccccc3)CC2)cc1` [8a, 4-(4-Benzylpiperazine-1-carbonyl)benzenesulfonamide] gave a Ki greater than 10 µM.

Consider `NS(=O)(=O)c1ccc(C(=O)N2CCN(Cc3ccc(F)cc3)CC2)cc1` [8b, 4-[4-[(4-Fluorophenyl)methyl]piperazine-1-carbonyl]benzenesulfonamide], for which the affinity corresponds to a Ki of 5.01 µM.

On to `NS(=O)(=O)c1ccc(C(=O)N2CCN(C(c3ccccc3)c3ccccc3)CC2)cc1` [8c, 4-(4-Benzhydrylpiperazine-1-carbonyl)benzenesulfonamide], for which the affinity, expressed as Ki, was 4.82 µM.

As for `NS(=O)(=O)c1ccc(C(=O)N2CCN(c3ccccc3)CC2)cc1` [8d, 4-(4-Phenylpiperazine-1-carbonyl)benzenesulfonamide], the Ki is 4.16 µM.

Staying with this data set, now noted: qualitative statement.
Regarding `NS(=O)(=O)c1ccc(C(=O)N2CCN(Cc3ccccc3)CC2)cc1` [8a, 4-(4-Benzylpiperazine-1-carbonyl)benzenesulfonamide], the “inhibitory activity toward VchCAβ (in words)” value is given as “completely loss of inhibitory activity”.

On to `NS(=O)(=O)c1ccc(C(=O)N2CCN(Cc3ccc(F)cc3)CC2)cc1` [8b, 4-[4-[(4-Fluorophenyl)methyl]piperazine-1-carbonyl]benzenesulfonamide], for which the “inhibitory activity toward VchCAβ (in words)” value is on record as “moderate inhibitors”.

`NS(=O)(=O)c1ccc(C(=O)N2CCN(C(c3ccccc3)c3ccccc3)CC2)cc1` [8c, 4-(4-Benzhydrylpiperazine-1-carbonyl)benzenesulfonamide]: the “inhibitory activity toward VchCAβ (in words)” value is given as “moderate inhibitors”.

Turning to `NS(=O)(=O)c1ccc(C(=O)N2CCN(c3ccccc3)CC2)cc1` [8d, 4-(4-Phenylpiperazine-1-carbonyl)benzenesulfonamide], the “inhibitory activity toward VchCAβ (in words)” value is listed as “moderate inhibitors”.

Tested on in a further data set: not given
Assay: not given
Details: not given
The term melting point denotes the temperature of the solid-liquid transition. The compound `CC1CCN(C(=O)c2ccc(S(N)(=O)=O)cc2)CC1` [5d, 4-(4-Methylpiperidine-1-carbonyl)benzenesulfonamide] returned a melting point of 212 to 213 °C.

For `NS(=O)(=O)c1ccc(C(=O)N2CCC(Cc3ccccc3)CC2)cc1` [5e, 4-(4-Benzylpiperidine-1-carbonyl)benzenesulfonamide], the melting point lay within 156 to 157 °C.

Turning to `NS(=O)(=O)c1ccc(C(=O)N2CCC(c3ccccc3)CC2)cc1` [7a, 4-(4-Phenylpiperidine-1-carbonyl)benzenesulfonamide], the melting point lay within 222 to 223 °C.

As for `NS(=O)(=O)c1ccc(C(=O)N2CCC(O)(c3ccccc3)CC2)cc1` [7b, 4-(4-Hydroxy-4-phenylpiperidine-1-carbonyl)benzenesulfonamide], the melting point was 135 to 137 °C.

Compound `NS(=O)(=O)c1ccc(C(=O)N2CCC(O)(c3ccc(Cl)cc3)CC2)cc1` [7c, 4-[4-(4-Chlorophenyl)-4-hydroxypiperidine-1-carbonyl]benzenesulfonamide] came in with a melting point of 215 to 217 °C.

With `NS(=O)(=O)c1ccc(C(=O)N2CCC(O)(c3ccc(Br)cc3)CC2)cc1` [7d, 4-[4-(4-Bromophenyl)-4-hydroxy-piperidine-1-carbonyl]benzenesulfonamide], the melting point lay within 219 to 220 °C.

For the compound `N#CC1(c2ccccc2)CCN(C(=O)c2ccc(S(N)(=O)=O)cc2)CC1` [7e, 4-(4-Cyano-4-phenylpiperidine-1-carbonyl)benzenesulfonamide], the melting point fell in the range of 285 to 286 °C.

As for `NS(=O)(=O)c1ccc(C(=O)N2CCN(Cc3ccccc3)CC2)cc1` [8a, 4-(4-Benzylpiperazine-1-carbonyl)benzenesulfonamide], the melting point is 204 to 205 °C.

Turning to `NS(=O)(=O)c1ccc(C(=O)N2CCN(Cc3ccc(F)cc3)CC2)cc1` [8b, 4-[4-[(4-Fluorophenyl)methyl]piperazine-1-carbonyl]benzenesulfonamide], the melting point lay within 206 to 207 °C.

Another data set concerns the target VchCAγ (Vibrio cholerae, UniProt Q9KVT1). Put plainly: stopped flow CO2 hydrase assay, VchCAγ. Type of data set: biochemical.
Details: not given
Take `NS(=O)(=O)c1ccc(C(=O)N2CCCCC2)cc1` [5a, 4-(Piperidine-1-carbonyl)benzenesulfonamide]: the Ki is greater than 10 µM.

Turning to `CC1CCCCN1C(=O)c1ccc(S(N)(=O)=O)cc1` (stereo not shown) [5b, 4-(2-Methylpiperidine-1-carbonyl)benzenesulfonamide], the Ki was greater than 10 µM.

For the compound `CC1CCCN(C(=O)c2ccc(S(N)(=O)=O)cc2)C1` (stereo not shown) [5c, 4-(3-Methylpiperidine-1-carbonyl)benzenesulfonamide], the Ki is greater than 10 µM.

For `CC1CCN(C(=O)c2ccc(S(N)(=O)=O)cc2)CC1` [5d, 4-(4-Methylpiperidine-1-carbonyl)benzenesulfonamide], the Ki is greater than 10 µM.

As for `NS(=O)(=O)c1ccc(C(=O)N2CCC(Cc3ccccc3)CC2)cc1` [5e, 4-(4-Benzylpiperidine-1-carbonyl)benzenesulfonamide], the inhibition constant Ki is greater than 10 µM.

`NS(=O)(=O)c1ccc(C(=O)N2CCCCCC2)cc1` [6a, 4-(Azepane-1-carbonyl)benzenesulfonamide] showed a Ki greater than 10 µM.

Turning to `NS(=O)(=O)c1ccc(C(=O)N2CCC(c3ccccc3)CC2)cc1` [7a, 4-(4-Phenylpiperidine-1-carbonyl)benzenesulfonamide], the Ki is greater than 10 µM.

For the compound `NS(=O)(=O)c1ccc(C(=O)N2CCC(O)(c3ccccc3)CC2)cc1` [7b, 4-(4-Hydroxy-4-phenylpiperidine-1-carbonyl)benzenesulfonamide], the inhibition constant (Ki) is greater than 10 µM.

In turn, `NS(=O)(=O)c1ccc(C(=O)N2CCC(O)(c3ccc(Cl)cc3)CC2)cc1` [7c, 4-[4-(4-Chlorophenyl)-4-hydroxypiperidine-1-carbonyl]benzenesulfonamide] gave an inhibition constant Ki greater than 10 µM.

As to `NS(=O)(=O)c1ccc(C(=O)N2CCC(O)(c3ccc(Br)cc3)CC2)cc1` [7d, 4-[4-(4-Bromophenyl)-4-hydroxy-piperidine-1-carbonyl]benzenesulfonamide], the inhibition constant (Ki) was greater than 10 µM.

Consider `N#CC1(c2ccccc2)CCN(C(=O)c2ccc(S(N)(=O)=O)cc2)CC1` [7e, 4-(4-Cyano-4-phenylpiperidine-1-carbonyl)benzenesulfonamide], for which the Ki is greater than 10 µM.

Turning to `CC(=O)C1(c2ccccc2)CCN(C(=O)c2ccc(S(N)(=O)=O)cc2)CC1` [7f, 4-(4-Acetyl-4-phenyl-piperidine-1-carbonyl)benzenesulfonamide], the Ki is greater than 10 µM.

As to `NS(=O)(=O)c1ccc(C(=O)N2CCN(Cc3ccccc3)CC2)cc1` [8a, 4-(4-Benzylpiperazine-1-carbonyl)benzenesulfonamide], the Ki is greater than 10 µM.

In turn, `NS(=O)(=O)c1ccc(C(=O)N2CCN(Cc3ccc(F)cc3)CC2)cc1` [8b, 4-[4-[(4-Fluorophenyl)methyl]piperazine-1-carbonyl]benzenesulfonamide] had a Ki greater than 10 µM.

On to `NS(=O)(=O)c1ccc(C(=O)N2CCN(C(c3ccccc3)c3ccccc3)CC2)cc1` [8c, 4-(4-Benzhydrylpiperazine-1-carbonyl)benzenesulfonamide], for which the Ki was greater than 10 µM.

Regarding `NS(=O)(=O)c1ccc(C(=O)N2CCN(c3ccccc3)CC2)cc1` [8d, 4-(4-Phenylpiperazine-1-carbonyl)benzenesulfonamide], the Ki was greater than 10 µM.
